Experimental data reported in ChEMBL document CHEMBL3286183, “Minor diterpene glycosides from the leaves of Stevia rebaudiana” (J Nat Prod, 2014).
Active and inactive are the calls of the source.

What was measured:
Type in all cases: functional, organism-based
Cryptococcus neoformans = test: Antimicrobial activity against Cryptococcus neoformans ATCC 90113
Aspergillus fumigatus = test: Antimicrobial activity against Aspergillus fumigatus ATCC 90906
Staphylococcus aureus = test: Antimicrobial activity against methicillin-resistant Staphylococcus aureus ATCC 43300
Escherichia coli = test: Antimicrobial activity against Escherichia coli ATCC 35218
Pseudomonas aeruginosa = test: Antimicrobial activity against Pseudomonas aeruginosa ATCC 27853
[1] = test system: Mycobacterium intracellulare; test: Antimicrobial activity against Mycobacterium intracellulare ATCC 23068
Plasmodium falciparum [2] = test: Antimalarial activity against chloroquine-sensitive Plasmodium falciparum D6
Plasmodium falciparum [3] = test: Antimalarial activity against chloroquine-resistant Plasmodium falciparum W2
Candida albicans = test: Antimicrobial activity against Candida albicans ATCC 90028

Measured: Activity

C=C1C[C@@]23CC[C@H]4[C@@](C)(CCC[C@@]4(C)C(=O)O[C@@H]4O[C@H](CO)[C@@H](O)[C@H](O)[C@H]4O[C@@H]4O[C@H](CO)[C@@H](O)[C@H](O)[C@H]4O)[C@@H]2CC[C@]1(O[C@@H]1O[C@H](CO)[C@@H](O)[C@H](O)[C@H]1O)C3
inactive: all assays above

C=C1C[C@@]23CC[C@H]4[C@@](C)(CCC[C@@]4(C)C(=O)O[C@@H]4O[C@H](CO)[C@@H](O)[C@H](O)[C@H]4O)[C@@H]2CC[C@]1(O[C@@H]1O[C@H](CO)[C@@H](O)[C@H](O)[C@H]1O[C@@H]1O[C@H](CO)[C@@H](O)[C@H](O)[C@H]1O)C3
inactive: all assays above

C=C1C[C@@]23CC[C@H]4[C@@](C)(CCC[C@@]4(C)C(=O)O[C@@H]4O[C@H](CO)[C@@H](O)[C@H](O)[C@H]4O[C@@H]4O[C@H](CO)[C@@H](O)[C@H](O)[C@H]4O)[C@@H]2CC[C@]1(O[C@@H]1O[C@H](CO)[C@@H](O)[C@H](O[C@@H]2O[C@H](CO)[C@@H](O)[C@H](O)[C@H]2O)[C@H]1O[C@@H]1O[C@H](CO)[C@@H](O)[C@H](O)[C@H]1O)C3
not listed: Plasmodium falciparum [2] | Plasmodium falciparum [3]
inactive: all other assays above

C=C1C[C@@]23CC[C@H]4[C@@](C)(CCC[C@@]4(C)C(=O)O[C@@H]4O[C@H](CO)[C@@H](O)[C@H](O)[C@H]4O)[C@@H]2CC[C@]1(O[C@@H]1O[C@H](CO)[C@@H](O)[C@H](O[C@@H]2OC[C@@H](O)[C@H](O)[C@H]2O)[C@H]1O[C@@H]1O[C@H](CO)[C@@H](O)[C@H](O)[C@H]1O)C3
not listed: Plasmodium falciparum [2] | Plasmodium falciparum [3]
inactive: all other assays above

C=C1C[C@@]23CC[C@H]4[C@@](C)(CCC[C@@]4(C)C(=O)O[C@@H]4O[C@H](CO)[C@@H](O)[C@H](O)[C@H]4O)[C@@H]2CC[C@]1(O[C@@H]1O[C@H](C)[C@@H](O)[C@H](O)[C@@H]1O[C@@H]1O[C@H](CO)[C@@H](O)[C@H](O[C@@H]2O[C@H](CO)[C@@H](O)[C@H](O)[C@H]2O)[C@H]1O)C3
not listed: Plasmodium falciparum [2] | Plasmodium falciparum [3]
inactive: all other assays above

C=C1C[C@@]23CC[C@H]4[C@@](C)(CCC[C@@]4(C)C(=O)O[C@@H]4O[C@H](CO)[C@@H](O)[C@H](O)[C@H]4O)[C@@H]2CC[C@]1(O[C@@H]1O[C@H](C)[C@@H](O)[C@H](O)[C@@H]1O[C@@H]1O[C@H](CO)[C@@H](O)[C@H](O)[C@H]1O)C3
not listed: Plasmodium falciparum [2] | Plasmodium falciparum [3]
inactive: all other assays above

C=C1C[C@@]23CC[C@H]4[C@@](C)(CCC[C@@]4(C)C(=O)O[C@@H]4O[C@H](CO)[C@@H](O)[C@H](O)[C@H]4O)[C@@H]2CC[C@]1(O[C@@H]1O[C@H](CO)[C@@H](O)[C@H](O)[C@H]1O[C@@H]1O[C@H](CO)[C@@H](O)[C@H](O[C@@H]2O[C@H](CO)[C@@H](O)[C@H](O)[C@H]2O)[C@H]1O)C3
not listed: Plasmodium falciparum [2] | Plasmodium falciparum [3]
inactive: all other assays above

C=C1C[C@@]23CC[C@H]4[C@@](C)(CCC[C@@]4(C)C(=O)O)[C@@H]2CC[C@]1(O[C@@H]1O[C@@H](CO)[C@@H](O[C@@H]2O[C@@H](CO)[C@@H](O)[C@H](O)[C@@H]2O)[C@H](O)[C@@H]1O[C@@H]1O[C@@H](CO)[C@@H](O)[C@H](O)[C@@H]1O)C3
not listed: Plasmodium falciparum [2] | Plasmodium falciparum [3]
inactive: all other assays above
